What all share (format): in vivo
The test system of one experiment is Barley plants. Briefly: Inhibition of growth of barley. The settings on record: sprayed until dripping wet; measured after 3 weeks; compared with prior-art compounds (A), (B), (C) and (D). The procedure:
Inhibition of growth of barley
(§1) Solvent: 30 parts by weight of dimethylformamide
(§2) Emulsifier: 1 part by weight of polyoxyethylene sorbitan monolaurate.
(§3) To produce a suitable preparation of active compound, 1 part by weight of active compound is mixed with the stated amounts of solvent and emulsifier and the mixture is made up to the desired concentration with water.
Barley plants are grown in a greenhouse to the 2-leaf stage. In this stage, the plants are sprayed with the preparations of active compound until dripping wet. After 3 weeks, the additional growth is measured on all plants and the inhibition of growth in per cent of the additional growth of the control plants is calculated. 100% inhibition of growth means that growth has stopped and 0% denotes a growth corresponding to that of the control plants.

Another experiment has as its system Cotton plants. The experiment can be described thus: Inhibition of growth of cotton. The settings on record: sprayed until dripping wet; measured after 3 weeks; compared with prior-art compound (A). The procedure:
Inhibition of growth of cotton
as §1
Emulsifier: 1 part by weight of […] sorbitan monolaurate.
as §3
Cotton plants are grown in a greenhouse until the 5th secondary leaf has unfolded completely. In this stage, the plants are sprayed with the preparations of active compound until dripping wet. After 3 weeks, the additional growth of the plants is measured and the inhibition of growth in per cent of the additional growth of the control plants is calculated. 100% inhibition of growth means that growth has stopped and 0% denotes a growth corresponding to that of the control plants.

A further experiment relates to Rice. The experiment can be described thus: Inhibition of growth of rice. The settings on record: pots placed in active compound solution; length determined after development of the third leaf. The procedure:
Inhibition of growth of rice
as §1, §2
To prepare a suitable preparation of active compound, 1 part by weight of active compound is mixed with the stated amounts of solvent and emulsifier, and the mixture is made up to the desired concentration with water.
Rice is grown in climatic chambers in small pots containing vermiculite, until the first leaf reaches a size of 1-2 cm. At this stage, the pots are placed in the prepared active compound solutions to a height corresponding to half the height of the pot.
After the development of the third leaf, the length of all plants is determined, and expressed as a percentage of the length of the control plants. 100% means growth corresponding to that of the control plants, values below 100% mean inhibition of growth, and values above 100% mean promotion of growth.

For the next experiment, the system named is Venturia inaequalis. Briefly: Venturia test (apple)/protective. The settings on record: young apple plants sprayed, then inoculated; evaluation 12 days after inoculation; compared with comparative substance (c). The procedure: Venturia test (apple)/protective/ Solvent: 4.7 parts by weight of acetone Emulsifier: 0.3 parts by weight of alkylaryl polyglycol ether. To produce a suitable preparation of active compound, 1 part by weight of active compound is mixed with the stated amounts of solvent and emulsifier, and the concentrate is diluted with water to the desired concentration. To test for protective activity, young plants are sprayed with the preparation of active compound until dripping wet. After the spray coating has dried on, the plants are inoculated with an aqueous conidia suspension of the apple scab causative organism (Venturia inaequalis) and then remain in an incubation cabinet at 20° C. and 100% relative atmospheric humidity for 1 day. The plants are then placed in a greenhouse at 20° C. and a relative atmospheric humidity of about 70%. Evaluation is carried out 12 days after the inoculation.

A further experiment relates to Soya bean plants. The experiment can be described thus: Inhibition of growth of soya beans. The settings on record: sprayed until dripping wet; measured after 3 weeks; compared with prior-art compound (D). The procedure:
Inhibition of growth of soya beans
as §1, §2, §3
Soya bean plants are grown in a greenhouse until the first secondary leaf has unfolded completely. In this stage, the plants are sprayed with the preparations of active compound until dripping wet. After 3 weeks, the additional growth is measured on all the plants and the inhibition of growth in per cent of the additional growth of the control plants is calculated. 100% inhibition of growth means that growth has stopped and 0% denotes a growth corresponding to that of the control plants.

This note sets out measurements from US4921528A, “Substituted azolylmethyl-cyclopropyl-carbinol derivatives” (Bayer Aktiengesellschaft, priority 1984, dated 1990).

On to `OC(Cn1cncn1)(c1ccc(Cl)cc1)C1(Oc2ccccc2)CC1` (stereo not shown) [Compound I-5], for which the “inhibition of growth of barley (per cent of additional growth of control plants)” value in the experiment with Barley plants is “more pronounced inhibition of growth than the compounds (A), (B), (C) and (D)”. For the same compound, the “inhibition of growth of cotton (per cent of additional growth of control plants)” value with Cotton plants is reported as “more pronounced inhibition of growth than the compound (A)”. In the experiment on Rice, the “inhibition of growth of rice (length of plants as percentage of control plants)” value is recorded as “pronounced inhibition of growth”.

Turning to `CCSC1(C(O)(Cn2cncn2)c2ccc(Cl)cc2)CC1` (stereo not shown) [Compound I-1, 1-(4-chlorophenyl)-1-[1-(ethylthio)-1-cyclopropyl]-2-(1,2,4-triazol-1-yl)1-ethanol], the “protective activity against apple scab (Venturia inaequalis)” value with Venturia inaequalis was “better activity than the known comparative substance (c)”. Further, in the experiment on Rice, the “inhibition of growth of rice (length of plants as percentage of control plants)” value is “pronounced inhibition of growth”.

Turning to `CC[S+]([O-])C1(C(O)(Cn2cncn2)c2ccc(Cl)cc2)CC1` (stereo not shown) [Compound I-3, 1-(4-chlorophenyl)-1-[1-(ethylsulphinyl)-1-cyclopropyl]-2-(1,2,4-triazol-yl)1-ethanol], the “inhibition of growth of barley (per cent of additional growth of control plants)” value in the experiment on Barley plants is “more pronounced inhibition of growth than the compounds (A), (B), (C) and (D)”. For the same compound, in the experiment with Cotton plants, the “inhibition of growth of cotton (per cent of additional growth of control plants)” value is reported as “more pronounced inhibition of growth than the compound (A)”. For the same compound, the “inhibition of growth of rice (length of plants as percentage of control plants)” value with Rice is on record as “pronounced inhibition of growth”. Also, the “inhibition of growth of soya beans (per cent of additional growth of control plants)” value with Soya bean plants is “more pronounced inhibition of growth than the compound (D)”.

As for `CCCCSC1(C(O)(Cn2cncn2)c2ccc(Cl)cc2)CC1` (stereo not shown) [Compound I-6], the “inhibition of growth of rice (length of plants as percentage of control plants)” value in the experiment with Rice was “pronounced inhibition of growth”.
